Assay results: patent US9670161B2, “5-fluoro-N-(pyridin-2-yl)pyridin-2-amine derivatives containing a sulfone group” (BAYER PHARMA AKTIENGESELLSCHAFT, priority 2012, dated 2017)

Legend:
CDK9/CycT1 = CDK9/CycT1 (Homo sapiens (Human), UniProt P50750); experiment: CDK9/CycT1 high ATP kinase assay (TR-FRET, 2 mM ATP); type: biochemical; settings: Method 1b
Description: 1b. CDK9/CycT1 High ATP Kinase Assay
CDK9/CycT1-inhibitory activity of compounds of the present invention at a high ATP concentration after preincubation of enzyme and test compounds was quantified employing the CDK9/CycT1 TR-FRET assay as described in the following paragraphs.
Recombinant full-length His-tagged human CDK9 and CycT1, expressed in insect cells and purified by Ni-NTA affinity chromatography, were purchase from Invitrogen (Cat. No PV4131). As substrate for the kinase reaction biotinylated peptide biotin-Ttds-YISPLKSPYKISEG (C-terminus in amid form) was used which can be purchased e.g. form the company JERINI peptide technologies (Berlin, Germany).
For the assay 50 nl of a 100 fold concentrated solution of the test compound in DMSO was pipetted into a black low volume 384 well microtiter plate (Greiner Bio-One, Frickenhausen, Germany), 2 μl of a solution of CDK9/CycT1 in aqueous assay buffer [50 mM Tris/HCl pH 8.0, 10 mM MgCl2, 1.0 mM dithiothreitol, 0.1 mM sodium ortho-vanadate, 0.01% (v/v) Nonidet-P40 (Sigma)] were added and the mixture was incubated for 15 min at 22° C. to allow pre-binding of the test compounds to the enzyme before the start of the kinase reaction. Then the kinase reaction was started by the addition of 3 μl of a solution of adenosine-tri-phosphate (ATP, 3.3 mM=>final conc. in the 5 μl assay volume is 2 mM) and substrate (1.67 μM=>final conc. in the 5 μl assay volume is 1 μM) in assay buffer and the resulting mixture was incubated for a reaction time of 25 min at 22° C. The concentration of CDK9/CycT1 was adjusted depending of the activity of the enzyme lot and was chosen appropriate to have the assay in the linear range, typical concentrations were in the range of 0.5 μg/mL. The reaction was stopped by the addition of 5 μl of a solution of TR-FRET detection reagents (0.2 μM streptavidine-XL665 [Cisbio Bioassays, Codolet, France] and 1 nM anti-RB(pSer807/pSer811)-antibody from BD Pharmingen [#558389] and 1.2 nM LANCE EU-W1024 labeled anti-mouse IgG antibody [Perkin-Elmer, product no. AD0077]) in an aqueous EDTA-solution (100 mM EDTA, 0.2% (w/v) bovine serum albumin in 100 mM HEPES/NaOH pH 7.0).
The resulting mixture was incubated 1 h at 22° C. to allow the formation of complex between the phosphorylated biotinylated peptide and the detection reagents. Subsequently the amount of phosphorylated substrate was evaluated by measurement of the resonance energy transfer from the Eu-chelate to the streptavidine-XL. Therefore, the fluorescence emissions at 620 nm and 665 nm after excitation at 350 nm was measured in a HTRF reader, e.g. a Rubystar (BMG Labtechnologies, Offenburg, Germany) or a Viewlux (Perkin-Elmer). The ratio of the emissions at 665 nm and at […] was taken as the measure for the amount of phosphorylated substrate. The data were normalised (enzyme reaction without inhibitor=0% inhibition, all other assay components but no enzyme=100% inhibition).

[1] = tested on: HeLa, human cervical tumour cells; experiment: Proliferation assay, HeLa (crystal violet); type: cell-based; settings: 96 h, 4 days, read-out: Inhibition of HeLa cell proliferation IC50
Description: Cultivated tumour cells (HeLa, human cervical tumour cells, ATCC CCL-2; NCI-H460, human non-small cell lung carcinoma cells, ATCC HTB-177; A2780, human ovarian carcinoma cells, ECACC #93112519; DU 145, hormone-independent human prostate carcinoma cells, ATCC HTB-81; HeLa-MaTu-ADR, multidrug-resistant human cervical carcinoma cells, EPO-GmbH Berlin; Caco-2, human colorectal carcinoma cells, ATCC HTB-37; B16F10, mouse melanoma cells, ATCC CRL-6475) were plated at a density of 5,000 cells/well (DU145, HeLa-MaTu-ADR), 3,000 cells/well (NCI-H460, HeLa), 2,500 cells/well (A2780), 1,500 cells/well (Caco-2), or 1,000 cells/well (B16F10) in a 96-well multititer plate in 200 μL of their respective growth medium supplemented 10% fetal calf serum. After 24 hours, the cells of one plate (zero-point plate) were stained with crystal violet (see below), while the medium of the other plates was replaced by fresh culture medium (200 μl), to which the test substances were added in various concentrations (0 μM, as well as in the range of 0.001-10 μM; the final concentration of the solvent dimethyl sulfoxide was 0.5%). The cells were incubated for 4 days in the presence of test substances. Cell proliferation was determined by staining the cells with crystal violet: the cells were fixed by adding 20 μl/measuring point of an 11% glutaric aldehyde solution for 15 minutes at room temperature. After three washing cycles of the fixed cells with water, the plates were dried at room temperature. The cells were stained by adding 100 μl/measuring point of a 0.1% crystal violet solution (pH 3.0). After three washing cycles of the stained cells with water, the plates were dried at room temperature. The dye was dissolved by adding 100 μl/measuring point of a 10% acetic acid solution. The extinction was determined by photometry at a wavelength of 595 nm. The change of cell number, in percent, was calculated by normalization of the measured values to the extinction values of the zero-point plate (=0%) and the extinction of the untreated (0 μm) cells (=100%). The IC50 values (inhibitory concentration at 50% of maximal effect) were determined by means of a 4 parameter fit.

Chain of CDK9/CycT1 (P50750 whole entry): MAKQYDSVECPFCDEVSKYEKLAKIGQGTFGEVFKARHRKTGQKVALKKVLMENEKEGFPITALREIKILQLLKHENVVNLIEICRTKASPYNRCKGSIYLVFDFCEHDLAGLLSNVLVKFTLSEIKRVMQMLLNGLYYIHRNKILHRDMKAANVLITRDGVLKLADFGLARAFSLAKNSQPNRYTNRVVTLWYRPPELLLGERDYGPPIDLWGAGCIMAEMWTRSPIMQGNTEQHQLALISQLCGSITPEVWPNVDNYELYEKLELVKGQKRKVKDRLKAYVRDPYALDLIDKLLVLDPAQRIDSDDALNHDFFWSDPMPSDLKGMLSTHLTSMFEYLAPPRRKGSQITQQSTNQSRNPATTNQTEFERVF
Chain of CDK9/CycT1 (O60563 whole entry partner): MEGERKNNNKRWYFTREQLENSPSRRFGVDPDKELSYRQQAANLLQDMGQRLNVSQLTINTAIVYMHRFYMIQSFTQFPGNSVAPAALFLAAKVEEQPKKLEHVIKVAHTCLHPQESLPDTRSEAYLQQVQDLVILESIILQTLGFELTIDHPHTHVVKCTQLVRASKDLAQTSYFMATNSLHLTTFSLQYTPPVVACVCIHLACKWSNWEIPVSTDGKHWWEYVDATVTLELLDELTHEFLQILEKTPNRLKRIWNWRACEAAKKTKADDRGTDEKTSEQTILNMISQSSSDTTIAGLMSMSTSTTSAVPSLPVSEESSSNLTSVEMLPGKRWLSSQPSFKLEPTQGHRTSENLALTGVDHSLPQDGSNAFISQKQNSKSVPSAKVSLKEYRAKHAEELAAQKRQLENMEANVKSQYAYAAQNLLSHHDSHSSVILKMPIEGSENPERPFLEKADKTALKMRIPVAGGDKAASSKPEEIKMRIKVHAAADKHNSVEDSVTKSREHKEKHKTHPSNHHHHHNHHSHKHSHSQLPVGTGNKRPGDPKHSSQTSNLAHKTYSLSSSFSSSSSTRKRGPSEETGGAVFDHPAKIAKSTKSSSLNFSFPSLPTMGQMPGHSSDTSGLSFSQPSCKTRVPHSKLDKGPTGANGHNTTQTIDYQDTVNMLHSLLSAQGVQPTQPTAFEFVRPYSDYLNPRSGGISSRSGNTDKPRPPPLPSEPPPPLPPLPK

`COc1cc(F)ccc1-c1cc(Nc2cc(CS(C)(=O)=O)ccn2)ncc1F` [Example 1, 5-Fluoro-4-(4-fluoro-2-methoxyphenyl)-N-{4-[(methylsulfonyl)methyl]pyridin-2-yl}pyridin-2-amine] showed an IC50 (CDK9/CycT1) of 2 nM and an IC50 [1] of 84 nM.

`COc1cc(F)ccc1-c1cc(Nc2cc(CS(C)(=O)=O)cc(C)n2)ncc1F` [Example 2, 5-Fluoro-4-(4-fluoro-2-methoxyphenyl)-N-{6-methyl-4-[(methylsulfonyl)methyl]pyridin-2-yl}pyridin-2-amine] gave an IC50 (CDK9/CycT1) of 2 nM and an IC50 [1] of 37 nM.

`COc1cc(F)ccc1-c1cc(Nc2cc(CS(C)(=O)=O)cc(F)n2)ncc1F` [Example 3, 5-Fluoro-4-(4-fluoro-2-methoxyphenyl)-N-{6-fluoro-4-[(methylsulfonyl)methyl]pyridin-2-yl}pyridin-2-amine] gave an IC50 (CDK9/CycT1) of 2 nM and an IC50 [1] of 100 nM.

`COc1cc(F)ccc1-c1cc(Nc2cc(CS(C)(=O)=O)cc(C(F)(F)F)n2)ncc1F` [Example 4, 5-Fluoro-4-(4-fluoro-2-methoxyphenyl)-N-{4-[(methylsulfonyl)methyl]-6-(trifluoromethyl)pyridin-2-yl}pyridin-2-amine] gave an IC50 (CDK9/CycT1) of 3 nM and an IC50 [1] of 16 nM.

Work on `COc1cc(F)ccc1-c1cc(Nc2cc(CS(C)(=O)=O)cc(C(F)F)n2)ncc1F` [Example 5, N-{6-(Difluoromethyl)-4-[(methylsulfonyl)methyl]pyridin-2-yl}-5-fluoro-4-(4-fluoro-2-methoxyphenyl)pyridin-2-amine] yielded an IC50 (CDK9/CycT1) of 1 nM and an IC50 [1] of less than 30 nM.
